The test system of data set [1] is PTZ-induced seizure behavior in zebrafish larvae. Description: Zebrafish pentylenetetrazole (PTZ) seizure model, behavioral analysis. It counts as in vivo, zebrafish (Danio rerio). To be noted: 2 hours incubation; for antiseizure activity of the separated enantiomers: S-enantiomer only significant at 200 μg/mL (p<0.01). As for the experimental part: Experiments were performed as described in Copmans et al. (2018) Neurochem. Int. 112, 124-133; Afrikanova et al (2013) PLoS One 8, e54166 and Orellana-Paucar et al. (2012) Epilepsy Behav 24, 14-22. In brief, a single 7 dpf larva was placed in each well of a 96-well plate and treated with either VHC (1% DMSO) or test compound (1% DMSO) in a 100 μL volume. Larvae were incubated in dark for 2 hours at 28° C., whereafter 100 μL of either VHC (embryo medium) or 40 mM PTZ (20 mM working concentration) was added to each well. Next, within 5 minutes the 96-well plate was placed in an automated tracking device (ZebraBox Viewpoint, France) and larval behavior was video recorded for 30 minutes. The complete procedure was performed in dark conditions using infrared light. Total locomotor activity was recorded by ZebraLab software (Viewpoint, France) and expressed in actinteg units, which is the sum of pixel changes detected during the defined time interval (5 minutes). Larval behavior was depicted as mean actinteg units per 5 minutes during the 30 minute recording period and over consecutive time intervals. Data are expressed as mean±SD for single experiments with regards to screening and as mean±SEM for single experiments and for independent experiments of which the means or data are pooled.
In the first secondary screen three replicate wells were used per sample (100 μg/mL) tested and each experimental plate contained 12 internal control wells. In the second secondary screen six replicate wells were used per sample and concentration tested (100, 33, and 11 μg/mL), again 12 internal control wells were used per experimental plate.

In a further data set the test system is zebrafish larvae. Description: Zebrafish toxicity evaluation: maximum tolerated concentration (MTC). To be noted: highest concentration without death, toxicity or locomotor impairment. It counts as in vivo, zebrafish (Danio rerio). As for the experimental part: Maximum tolerated concentration (MTC) was determined prior to further experiments and used as the highest test concentration. Experiments were performed as described in Copmans et al. (2018) Neurochem. Int. 112, 124-133. before. In brief, the MTC was investigated by exposing 12 larvae of 6 or 7 dpf to a range of concentrations in a 100 μL volume during 18 hours. The following parameters were investigated after 2 and 18 hours of exposure: touch response, morphology, posture, edema, signs of necrosis, swim bladder, and heartbeat. […] In case no MTC was reached, the highest soluble concentration was used.
Maximum tolerated concentration (MTC) was determined prior to further experiments and used as the highest test concentration. Experiments were performed as described in Copmans et al. (2018). Neurochem. Int. 112, 124-133. In brief, the MTC was investigated by exposing 12 larvae of 7 dpf to a range of concentrations in a 100 μL volume during 18 hours. The following parameters were investigated after 2 and 18 hours of exposure: touch response, morphology, posture, edema, signs of necrosis, swim bladder, and heartbeat.

The subject of data set [2] is PTZ-induced epileptiform discharges in zebrafish larvae. Kind of data set: Zebrafish PTZ seizure model, electrophysiology (local field potential recordings from the optic tectum). As to conditions: 2 hours, 10 min recording. Format: in vivo, zebrafish (Danio rerio). As for the experimental part: Non-invasive LFP recordings were measured from the midbrain (optic tectum) of 7 dpf zebrafish larvae pre-incubated with VHC only, PTZ only, compound and VHC, or compound and PTZ [Zdebik, et al. (2013) PLoS One 8, 6e10. Experiments were performed as described in Copmans, et al. (2018) Neurochem. Int. 112, 124-133 and Copmans et al. (2018) ACS chemical neuroscience.]. In brief, larvae were incubated for approximately 2 hours with VHC (1% DMSO) or test compound (1% DMSO) in a 100 μL volume. After incubation, an equal volume of VHC (embryo medium) or 40 mM PTZ (20 mM working concentration) was added to the well for 15 minutes prior to recording. These steps occurred at 28° C., while further manipulation and electrophysiological recordings occurred at room temperature (±21° C.). The larva was embedded in 2% low melting point agarose (Invitrogen) and the signal electrode (an electrode inside a soda-glass pipet (1412227, Hilgenberg) pulled with a DMZ Universal Puller (Zeitz, Germany), diameter±20 microns, containing artificial cerebrospinal fluid (ACSF: 124 mM NaCl, 10 mM glucose, 2 mM KCl, 2 mM MgSO4, 2 mM CaCl2), 1.25 mM KH2PO4, and 26 mM NaHCO3, 300-310 mOsmols)) was positioned on the skin covering the optic tectum. A differential extracellular amplifier (DAGAN, USA) amplified the voltage difference between the signal (measured by the signal electrode) and the reference electrode. The differential signal was band pass filtered at 0.3-300 Hz and digitized at 2 kHz via a PCI-6251 interface (National instruments, UK) using WinEDR (John Dempster, University of Strathclyde, UK). A grounding electrode grounded the electrical system. All electrodes were connected with ACSF. Each recording lasted 600 seconds. Manual analysis was completed by quantification of the number, cumulative duration, and mean duration of epileptiform-like events with Clampfit 10.2 software (Molecular Devices Corporation, USA). An electrical discharge was considered epileptiform if it was a poly-spiking event comprising at least 3 spikes with a minimum amplitude of three times the baseline amplitude and a duration of at least 100 milliseconds. Data are expressed as mean±SD.

The test system of data set [3] is EKP-induced epileptiform discharges in zebrafish larvae. Description: Zebrafish EKP seizure model, electrophysiology (local field potential recordings). Format: in vivo, zebrafish (Danio rerio). As to conditions: 12.5 μg/mL, 2 hours; 10 min recording; p≤0.05. As for the experimental part:
Non-invasive LFP recordings were measured from the midbrain (optic tectum) of 7 dpf zebrafish larvae pre-incubated with VHC only, EKP only, compound and VHC, or compound and EKP. Larvae were incubated for approximately 2 hours with VHC (1% DMSO) or test compound (1% DMSO). After incubation, VHC (1% DMSO) or 1 mM EKP (1% DMSO, 500 μM working concentration) was added to the well for 15 minutes prior to recording. These steps occurred at 28° C., while further manipulation and electrophysiological recordings occurred at room temperature (±21° C.). The larva was embedded in 2% low melting point agarose (Invitrogen) and the signal electrode was positioned on the skin covering the optic tectum and electrophysiological recordings (room temperature) were performed as described above for the zebrafish PTZ seizure model and as described in Zhang et al. (2017) Sci. Rep. 7, 7195. Manual analysis was completed by quantification of the number, cumulative duration, and mean duration of epileptiform-like events with Clampfit 10.2 software (Molecular Devices Corporation, USA). An electrical discharge was considered epileptiform if it was a poly-spiking event comprising at least 3 spikes with a minimum amplitude of three times the baseline amplitude and a duration of at least 100 milliseconds. Data are expressed as mean±SD.

Data set [4] concerns drug-resistant psychomotor seizures induced by corneal electrical stimulation. Kind of data set: Mouse 6-Hz (44 mA) psychomotor seizure model. Format: in vivo, Male NMRI mice. As to conditions: 30 min before stimulation, VHC 28 s. As for the experimental part: Experiments were performed as previously described. In brief, NMRI mice (average weight 32 g, range 28-36 g) were randomly divided into control and treatment groups (n=6-11). 50 μL (injection volume was adjusted to the individual weight) of VHC (PEG200:DMSO 1:1) or treatment (an ASD or test compound dissolved in VHC) was i.p. injected in mice and after 30 minutes psychomotor seizures were induced by low frequency, long duration corneal electrical stimulation (6 Hz, 0.2 ms rectangular pulse width, 3 s duration, 44 mA) using an ECT Unit 5780 (Ugo Basile, Comerio, Italy). Mice were manually restrained and a drop of ocular anesthetic (0.5% lidocaine) was applied to the corneas before stimulation. Following electrical current stimulation, the mouse was released in a transparent cage for behavioral observation, which was video-recorded. […] In addition, facial and mouth jerking as well as head nodding were observed occasionally. Seizure durations were measured during the experiment by experienced researchers, familiar with the different seizure behaviors. In addition, seizure durations were determined by blinded video analysis to confirm or correct the initial observations. Data are expressed as mean±SD.

Data set [5] deals with EKP-induced seizure behavior in zebrafish larvae. Description: Zebrafish ethyl ketopentenoate (EKP) seizure model, behavioral analysis. Format: in vivo, zebrafish (Danio rerio). As for the experimental part:
Experiments were performed as described in Zhang et al. (2017) Sci. Rep. 7, 7195. In brief, a single 7 dpf larva was placed in each well of a 96-well plate and treated with either VHC (1% DMSO) or test compound (1% DMSO) in a 100 μL volume. Larvae were incubated in dark for 2 hours at 28° C., whereafter 100 μL of either VHC (1% DMSO) or 1 mM EKP (1% DMSO, 500 μM working concentration) was added to each well. Next, within 5 minutes the 96-well plate was placed in an automated tracking device (ZebraBox Viewpoint, France) and larval behavior was video recorded for 30 minutes. The complete procedure was performed in dark conditions using infrared light. Total locomotor activity was recorded by ZebraLab software (Viewpoint, France) and expressed in actinteg units, which is the sum of pixel changes detected during the defined time interval (5 minutes). Larval behavior was depicted as mean actinteg units per 5 minutes during the 30 minute recording period and over consecutive time intervals. Data are pooled from independent experiments and expressed as mean±SEM.

Consider 4 compounds from patent US20230108004A1, “TREATMENT OF EPILEPSY WITH PLINABULIN OR HALIMIDE OR DIKETOPIPERAZINE DERIVATIVES” (Katholieke Universiteit Leuven, priority 2017, published 2023).

`C=CC(C)(C)c1[nH]cnc1C=C1NC(=O)C(Cc2ccccc2)NC1=O` (single isomer, unassigned) [R-enantiomer]: in data set [1], the “antiseizure activity of the separated enantiomers” value was “no significant effect”.

Regarding `C=CC(C)(C)c1nc[nH]c1/C=C1\NC(=O)C(Cc2ccccc2)NC1=O` (single isomer, unassigned) [S-enantiomer], the “antiseizure activity of the separated enantiomers” value in data set [1] is given as “active”.

With `C=CC(C)(C)c1nc[nH]c1/C=C1\NC(=O)C(Cc2ccccc2)NC1=O` (stereo not drawn) [halimide], in the data set with zebrafish larvae, the “maximum tolerated concentration (MTC)” value worked out at 200 µg/mL. Besides, in data set [1] (halimide at its MTC, 30 min recording period, p≤0.05), the PTZ-induced seizure behavior result is reported as “significantly lowered”. In data set [2] (MTC (200 μg/mL), p≤0.001), the “cumulative duration of PTZ-induced epileptiform events” value is “significantly lowered”, the “lowering of the percentage of larvae with PTZ-induced epileptiform activity” value was about 60% and the “number of PTZ-induced epileptiform events” value is “significantly lowered”.

As for `CC(C)(C)c1[nH]cnc1/C=c1\[nH]c(=O)/c(=C/c2ccccc2)[nH]c1=O` [plinabulin], the “cumulative duration of EKP-induced epileptiform events” value in data set [3] was “significantly lowered”. In data set [3], the “lowering of the percentage of larvae with EKP-induced epileptiform activity” value was determined as 40%. For the same compound, in data set [3], the “number of EKP-induced epileptiform events” value was “significantly lowered”. The PTZ-induced seizure behavior result in data set [1] (1.56-12.5 μg/mL, 30 min recording, p≤0.01 (1.56), p≤0.001 (3.13, 6.25, 12.5) (FIG. 7A)) is “significantly lowered”; in data set [1] (12.5 and 3.13 μg/mL, 30 min recording period, p≤0.001 (FIG. 4C)), “significantly lowered”. In addition, the mean seizure duration turned out to be 21 s in data set [4] (5 mg/kg i.p., not significant); 12.5 s in data set [4] (10 mg/kg i.p., p<0.05); 15 s in data set [4] (20 mg/kg i.p., p<0.01); 15 s in data set [4] (40 mg/kg i.p., p<0.05). For the same compound, in data set [2] (12.5 μg/mL), the “number of PTZ-induced epileptiform events” value is recorded as “non-significantly lowered”. Also, the “percentage of larvae with PTZ-induced epileptiform activity” value in data set [2] (12.5 μg/mL) was “non-significantly lowered”. Moreover, in data set [2] (12.5 μg/mL, p≤0.05), the “cumulative duration of PTZ-induced epileptiform events” value is “significantly lowered”. In data set [5] (3.13, 6.25 and 12.5 μg/mL, compound+VHC, zebrafish EKP seizure model), the “normal swimming behavior in comparison to VHC-treated larvae” value is recorded as “significantly lowered”. The EKP-induced seizure behavior result in data set [5] (all concentrations tested (0.78-12.5 μg/mL), 2 hours incubation, 30 min recording (FIG. 7B)) is given as “significantly lowered”.
